From PMC3472544, “Glycosaminoglycan analogs as a novel anti-inflammatory strategy” (Frontiers in Immunology, 2012)

How the values were obtained:
CCR5 [1] = target: T1, CCR5 (Homo sapiens, UniProt P51681); test: Equilibrium competition receptor binding assay with CCL3 as the ligand, CCR5; conditions: data not shown
T1 construct: expressed in transfected cells; host or cells: CHO
Description: (§1) The assays were carried out on membranes from CHO transfectants expressing CCR1 or CCR5, as described previously (Severin et al., [2010]). Briefly, serial dilutions of the compounds were prepared in binding buffer (50 mM TrisHCl, pH 7.2, containing 1 mM CaCl2, 5 mM MgCl2, and 0.5% BSA). Equal volumes of membrane preparation at 80 μg/ml and scintillation proximity assay (SPA) beads were mixed before adding them to a 96 well filter plate, giving a final membrane concentration in the assay of 20 μg/ml. ^125I labeled chemokines were dissolved in binding buffer at a concentration of 0.4 nM. […] The plates were incubated for 4 h. Radioactivity was counted with a beta counter for 1 min/well and the data analyzed using Graphpad Prism software. The radioligand was stored at −20°C and was used until the cpm of bound chemokine was ≥ 300 cpm.
(§2) A study of the relative affinity of Molecule 1 toward CCL5 and heparin molecules was first evaluated by competition experiments in which CCL5, immobilized on heparin beads, was competed off the beads by increasing concentrations of Molecule 1. […] Since the principal GAG binding motif of CCL5, the BBXB motif on the 40s loop, plays a role in binding to CCR1, we determined the capacity of Molecule 1 to inhibit the binding of the chemokine CCL5 to its receptors CCR1 and CCR5 using equilibrium competition binding with a SPA-based assay.

CCL5 = target: T2, CCL5 (Homo sapiens, UniProt P13501); test: NMR-based CCL5 binding, Kd from 15N-HSQC titration; conditions: for selective binding to CCL5 in the NMR screen: 206 compound library, 200 μM, HSQC chemical shift changes; for Kd: determined by protein NMR, pH 3.2, 30°C
T2 construct: made in house
T2 sequence (P13501 24-91): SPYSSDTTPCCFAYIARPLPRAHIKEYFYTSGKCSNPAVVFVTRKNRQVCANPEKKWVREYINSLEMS
Description: These molecules were charged, and contained multiple acid groups, such as carboxylates and sulfonates. In addition, many of the molecules were aromatic, to provide some hydrophobicity. The library was pooled into sets containing five compounds and these pools mixed at 200 μM, with an equal concentration of CCL5 at 30°C, and a heteronuclear single quantum coherence (HSQC) spectrum recorded immediately. For pools that induced significant change in the protein chemical shifts, a second round of screening was performed in which each of the five compounds was added individually to the protein solution. […] Dissociation constants were obtained by fitting the recorded chemical shift as a function of increasing ligand concentrations with: (1) δobs=δf+LbΔb −f in which δobs is the observed chemical shift at each point of the titration curve, δf is the chemical shift of the free protein and Δb − f is the difference in chemical shift between free and fully complexed protein.

CCR1 (Homo sapiens) = target: T3, CCR1 (Homo sapiens); test: Equilibrium competition receptor binding assay (SPA), [125I]-CCL5 on CHO/CCR1 membranes; conditions: [125I]-CCL5 0.1 nM, CHO/CCR1 membranes, SPA; read-out: IC50 for the inhibition of CCL5 binding to CCR1
T3 construct: expressed in transfected cells; host or cells: CHO
Description: The assays were carried out on membranes from CHO transfectants expressing CCR1 or CCR5, as described previously (Severin et al., [2010]). Briefly, serial dilutions of the compounds were prepared in binding buffer (50 mM TrisHCl, pH 7.2, containing 1 mM CaCl2, 5 mM MgCl2, and 0.5% BSA). Equal volumes of membrane preparation at 80 μg/ml and scintillation proximity assay (SPA) beads were mixed before adding them to a 96 well filter plate, giving a final membrane concentration in the assay of 20 μg/ml. ^125I labeled chemokines were dissolved in binding buffer at a concentration of 0.4 nM. The assay was started by the addition of 25 μL [^125I]-CCL5 to give a concentration of 0.1 nM, in a final assay volume of 100 μL. The plates were incubated for 4 h. Radioactivity was counted with a beta counter for 1 min/well and the data analyzed using Graphpad Prism software. The radioligand was stored at −20°C and was used until the cpm of bound chemokine was ≥ 300 cpm.

CCR5 [2] = target: T4, CCR5 (Homo sapiens, UniProt P13501); test: Equilibrium competition receptor binding assay (SPA), [125I]-CCL5 on CHO/CCR5 membranes; conditions: SPA-based equilibrium competition binding
T4 construct: expressed in transfected cells; host or cells: CHO
T4 sequence (P13501 24-91): T2 sequence (P13501 24-91)
Description: Briefly, serial dilutions of the compounds were prepared in binding buffer (50 mM TrisHCl, pH 7.2, containing 1 mM CaCl2, 5 mM MgCl2, and 0.5% BSA). […] The plates were incubated for 4 h. Radioactivity was counted with a beta counter for 1 min/well and the data analyzed using Graphpad Prism software. The radioligand was stored at −20°C and was used until the cpm of bound chemokine was ≥ 300 cpm.

CCL5 binding to heparin = target: T5, CCL5 binding to heparin (Homo sapiens, UniProt P13501); test: Immobilized heparin competition binding assay ([125I]-CCL5 on heparin-Sepharose beads); conditions: [125I]-CCL5 0.05 nM, 4 h, read-out: IC50 for the inhibition of CCL5 binding to heparin
T5 sequence (P13501 24-91): T2 sequence (P13501 24-91)
Description: Competition experiments were performed as described elsewhere (Severin et al., [2010]). Briefly, heparin-Sepharose beads (Sepharose beads or binding buffer as a background control) and increasing amounts of antagonist were added to each well of a 96 well filter plate. [^125I]-CCL5, was added last, to reach a final concentration of 0.05 nM. The plates were incubated on a shaker at room temperature for 4 h. Each experiment was performed in triplicate, and the results are given as the mean of the three assays.

CCR1 = target: T6, CCR1 (Homo sapiens, UniProt P32246); test: Equilibrium competition receptor binding assay with CCL3 as the ligand, CCR1; conditions: data not shown
T6 construct: expressed in transfected cells; host or cells: CHO
T6 sequence (P32246 1-355): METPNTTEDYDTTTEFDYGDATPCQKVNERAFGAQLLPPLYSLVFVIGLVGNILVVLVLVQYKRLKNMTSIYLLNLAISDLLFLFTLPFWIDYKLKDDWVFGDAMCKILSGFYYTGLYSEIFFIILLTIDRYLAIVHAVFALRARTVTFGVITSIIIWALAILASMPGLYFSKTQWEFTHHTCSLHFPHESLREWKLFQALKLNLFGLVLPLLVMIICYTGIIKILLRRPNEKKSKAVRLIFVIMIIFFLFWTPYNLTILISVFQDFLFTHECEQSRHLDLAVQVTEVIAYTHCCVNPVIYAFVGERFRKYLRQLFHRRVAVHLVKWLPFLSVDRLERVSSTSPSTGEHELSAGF
Description: as §1, §2

[3] = tested on: CCL5-induced cellular recruitment into the peritoneal cavity; test: CCL5-induced peritoneal cellular recruitment; assay type: in vivo, mouse; conditions: CCL5 binders administered 30 min prior to CCL5 (Figure 4A, B)
[4] = tested on: paw thickness after SRBC challenge; test: Delayed-type hypersensitivity (DTH) model, SRBC; assay type: in vivo, BALB/c mice; conditions: for inhibition of paw swelling: oligosaccharides 10 mg/kg s.c. at −30 min and +8 h, dexamethasone by oral gavage 30 min before challenge, paw thickness at 21 h
Description: Female BALB/c mice were immunized with 2 × 10^6 sheep red blood cells (SRBC) by subcutaneous route (s.c.) at the base of the tail. Five days later mice were challenged with an s.c. injection of 2 × 10^6 SRBC into the softpaw of the left hindpaw. The paw thickness was measured 21 h later and the difference calculated based on values obtained before challenge. MHxS, NisS, and StachS were injected s.c. at a dose of 10 mg/kg, 30 min before and 8 h after challenge. Vehicle was 0.02% BSA diluted in PBS. The reference compound, dexamethasone, was diluted in saline and administered by oral gavage 30 min before challenge. Group sizes were 6 for sham and 8 for all other groups.
Figure 5 Inhibition of delayed-type hypersensitivity. Immunization was performed by s.c. administration of SRBC, followed by a challenge in the hindpaw 5 days later. The persulfated oligosaccharides (10 mg/kg) were administered 30 min prior and 8 h after the challenge. Dexamethasone was used as a positive control, and paw thickness was measured 21 h following the challenge. The statistical differences vs. the control group (mice challenged with SRBC and treated with vehicle for the compounds 0.02% BSA diluted in PBS) are shown whenever present and indicated by ^*P <0.05>; ^***P < 0.001. TEXT PRINTED IN THE PICTURE: dexamethasone: 47% *** | MHxS: 39% *** | NisS: 20% * | StachS: 41% ***

[5] = tested on: leukocyte recruitment into the synovial (knee) cavity; test: Antigen-induced arthritis (AIA) model, mBSA; assay type: in vivo, mice; conditions: 50 μg s.c. immediately after mBSA; cells counted at 24 h
Description: Induction of disease was performed by injection of 10 μg methylated bovine serum albumin (mBSA) as a 10 μL injection into the synovial cavity. Test compounds, at a total dose of 50 μg were injected in a total volume of 200 μL subcutaneously immediately after mBSA administration. Group sizes were 4–6 animals. Total leukocytes (A), neutrophils (B), and mononuclear cells (C) in the synovial cavity were enumerated 24 h after mBSA injection (Sachs et al., [2011]).
Figure 6 Inhibition of antigen induced arthritis. An injection of mBSA into the synovial cavity was used to induce disease. 50 μg of the inhibitors were administered s.c. immediately after the mBSA injection, and the cells in the synovial cavity were enumerated 24 h later. (A) Total cells; (B) […]; (C) mononuclear cells. ^*P < 0.05.

[6] = tested on: citrated plasma from healthy human blood donors; test: Anti-coagulation assay: Activated Partial Thromboplastin Time (APTT); conditions: calibrated against heparin standard curve, samples at 1 mg/ml (MHxS 0.1 mg/ml)
Description: Activated Partial Thromboplastin Time (APTT) assays were performed by GlycoMar. 10 mg/ml stock solutions of NisS, StachS, and MHxS, were prepared using dH2O and stored at −20°C until use. Samples were tested at 1 mg/ml. All further dilutions were in dH2O. Prior to each assay, a calibration curve of heparin ranging from 0 to 10 IU/ml was prepared using 5th International Standard Heparin. (GlycoMar ID:92, batch 97/578, Expiry 21SEP10). Fresh human blood from healthy human blood donors was collected into S-Monovette Coagulation tubes from Sarstedt. Nine parts of freshly drawn venous blood were collected into one part trisodium citrate (0.106 M). Plasma was obtained by centrifugation at 1500 × g for 10 min. Each of the carbohydrate samples was diluted and tested at 1 mg/ml in the first instance. MHxS was subsequently tested at 0.1 mg/ml to be within the time frame of the standard curve. The APTT assay was run on an ACL 9000 Coagulation Analyzer. The coagulation time of HemosIL Normal Control (cat no. 0020003110) was checked. Samples, standards and controls were mixed 1:10 with citrated plasma in a test tube, loaded into the ACL 9000 carousel and analyzed using the extended APTT run program.

T1 sequence (P51681 whole entry, species assumed): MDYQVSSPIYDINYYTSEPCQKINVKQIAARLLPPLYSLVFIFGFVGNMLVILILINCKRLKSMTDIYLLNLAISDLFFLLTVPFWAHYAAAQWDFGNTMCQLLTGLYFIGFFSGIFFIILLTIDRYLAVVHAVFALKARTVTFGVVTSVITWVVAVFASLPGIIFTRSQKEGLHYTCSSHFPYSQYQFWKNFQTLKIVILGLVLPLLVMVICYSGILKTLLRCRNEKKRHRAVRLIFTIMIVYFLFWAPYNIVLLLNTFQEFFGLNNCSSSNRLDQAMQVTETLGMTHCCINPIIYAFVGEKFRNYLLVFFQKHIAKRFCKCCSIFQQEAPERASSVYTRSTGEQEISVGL

Molecule: O=C(O)c1cc(S(=O)(=O)O)ccc1O [Molecule 1]
- competition of CCL3 binding to CCR5 (CCR5 [1]): no competition
- selective binding to CCL5 in the NMR screen (CCL5): confirmed to be selectively binding to CCL5
- Kd (CCL5): 20 µM
- IC50 (CCR1 (Homo sapiens)): 6.7 µM
- effect on CCL5 binding to CCR5 (CCR5 [2]): no effect
- IC50 (CCL5 binding to heparin): 320 µM
- competition of CCL3 binding to CCR1 (CCR1): no competition
- cell recruitment to the peritoneum [3]: inhibited cell recruitment to the peritoneum in a dose dependent manner

Molecule: O=C(O)c1ccccc1O [Molecule 4]
- Kd (CCL5): 350 µM

Molecule: O=S(=O)(O)c1cc(O)ccc1O [Molecule 5]
- Kd (CCL5): > 500 µM

Molecule: Nc1ccc(O)c(S(=O)(=O)O)c1 [Molecule 6]
- Kd (CCL5): 500 µM

Molecule: Nc1cc(C(=O)O)c(O)c(S(=O)(=O)O)c1 [Molecule 7]
- Kd (CCL5): 35 µM

Molecule: CC(=O)Nc1cc(C(=O)O)c(O)c(S(=O)(=O)O)c1 [Molecule 8]
- selective binding to CCL5 in the NMR screen (CCL5): confirmed to be selectively binding to CCL5
- Kd (CCL5): 20 µM

Molecule: O=C(O)c1cc(NS(=O)(=O)c2ccc([N+](=O)[O-])cc2)cc(S(=O)(=O)O)c1O [Molecule 9]
- Kd (CCL5): 300 µM

Molecule: O=C(O)c1c(O)ccc(S(=O)(=O)O)c1O [Molecule 10]
- selective binding to CCL5 in the NMR screen (CCL5): confirmed to be selectively binding to CCL5
- Kd (CCL5): 18 µM

Molecule: O=C(O)c1cc(S(=O)(=O)O)c(O)cc1O [Molecule 11]
- Kd (CCL5): < 10 µM

Molecule: O=C(O)c1c(O)c(S(=O)(=O)O)cc(S(=O)(=O)O)c1O [Molecule 12]
- Kd (CCL5): 1 to 5 µM

Molecule: O=S(=O)(O)c1ccccc1O [Molecule 13]
- Kd (CCL5): 50 µM

Molecule: O=C(O)c1cc(S(=O)(=O)Nc2cc(C(=O)O)c(O)c(S(=O)(=O)O)c2)ccc1O [Molecule 14]
- Kd (CCL5): < 1 µM

Molecule: CC(=O)Nc1ccc(S(=O)(=O)Nc2cc(C(=O)O)c(O)c(S(=O)(=O)O)c2)cc1 [Molecule 16]
- Kd (CCL5): 40 µM

Molecule: C[C@@H]1C[C@H]2[C@@H]3CCC4=CC(=O)C=C[C@]4(C)[C@@]3(F)[C@@H](O)C[C@]2(C)[C@@]1(O)C(=O)CO [dexamethasone, reference compound]
- inhibition of paw swelling [4]: 47%

Molecule: persulfated Nis [NisS]
- inhibition of paw swelling [4]: 20%
- IC50 (CCL5 binding to heparin): 5.89 ± 0.04 µM
- mononuclear cell recruitment into the knee cavity [5]: statistically significant reduction
- neutrophil recruitment into the knee cavity [5]: statistically significant reduction
- Anticoagulant activity (heparin-equivalent) [6]: 6.87 ± 3.22 IU/mg

Molecule: persulfated Stach [StachS]
- reduction of paw thickness compared with dexamethasone ([4]; 10 mg/kg s.c. at −30 min and +8 h): comparable effect
- inhibition of paw swelling [4]: 41%
- IC50 (CCL5 binding to heparin): 18.6 ± 4.34 µM
- Anticoagulant activity (heparin-equivalent) [6]: 6.90 ± 2.69 IU/mg
